Reference: patent US8455251B2, “Method for isolating and culturing adult stem cells derived from human amniotic epithelium” (RNL Bio Co., Ltd., priority 2007, dated 2013)

Assays:
Type in all cases: cell-based, human
[1] = system: amniotic epithelial cells; experiment: Isolation of amniotic epithelial cells from amniotic tissue, living cells counted by trypan blue
Procedure: 5 g of amniotic tissue was weighed and washed with HBSS. For stable isolation of amniotic epithelial cells, the washing process was carried out using HBSS buffer more similar to the constituents of the human body rather than using general PBS. The washed amniotic tissue was transferred into a 50-ml tube, and 10 mM DTT was added thereto. After treatment with DTT for 30 minutes, the supernatant was discarded, the amniotic tissue was finely cut, and the finely cut amniotic tissue was treated with fresh 0.05% trypsin-EDTA at 37° C. for 42 minutes under stirring, thus chemically degrading the tissue. The chemically degraded tissue was vortexed for 1 minute, and then it was primarily filtered through a 1-mm mesh and secondarily filtered through a 100-μm mesh, thus removing non-degraded tissue. The filtered tissue was centrifuged at 1800 rpm for 10 minutes. The single cell pellets at the bottom were well suspended, thus obtaining amniotic epithelial cells. Living cells were visually counted under a microscope using a hemocytometer according to trypan blue dye method and, as a result, the number of cells counted immediately after isolation was 3.72×10^7 cells (FIG. 1 (A)). On the other hand, in the case in which amniotic epithelial cells were isolated from amniotic tissue by treatment with trypsin alone without the addition of DTT, the number of cells counted immediately after isolation was 9.25×10^5 cells (FIG. 1 (B)).

[2] = system: amniotic epithelial cell-derived adult stem cells; experiment: Proliferation of stem cells at various concentrations of ROCK inhibitor; design: proliferation of the cells: dose or concentration left out as unconfirmed
Procedure: In order to examine the proliferation potential of amniotic epithelial cell-derived adult stem cells at various concentrations of ROCK inhibitor, the amniotic epithelial cells obtained in Example 1 were subcultured in DMEM/F-12 media containing FBS, ascorbic acid, epidermal growth factor, insulin and an antibiotic, to which ROCK inhibitor Y-27632 has been added at various concentrations of 100 μM, 1 μM, 100 nM and 10 nM. After 1 day and 4 days of the subculture, the optimum ROCK inhibitor Y-27632 concentration for the culture of the adult stem cells was examined.

[3] = system: amniotic epithelial cell-derived adult stem cells; experiment: Effect of the addition of ROCK inhibitor on proliferation of stem cells (Comparative Example 1); settings: 10 μM; observed 1, 2 and 3 days after seeding
Procedure: In order to examine the effect of ROCK inhibitor, 4×10^6 amniotic epithelial cells obtained in Example 1 were subcultured in a DMEM/F-12 medium containing FBS, ascorbic acid, epidermal growth factor, insulin and an antibiotic for 4 days. Then, the cells were seeded into each of a medium containing 10 μM of the ROCK inhibitor Y-27632 and a medium containing no ROCK inhibitor and were observed 1 day, 2 days and 3 days after seeding.

[4] = system: amniotic epithelial cell-derived adult stem cells; experiment: Culture and subculture of amniotic epithelial cells in the presence of ROCK inhibitor; settings: 10 μM ROCK inhibitor added 4 days after isolation of the amniotic epithelial cells, FIG. 2
Procedure: The obtained amniotic epithelial cells were cultured in a medium (Gibco) consisting of a 1:1 mixture of DMEM (Dulbecco modified Eagle medium) and F-12 (nutrient mixture) to which FBS, ascorbic acid, epidermal growth factor, insulin, an antibiotic and 10 μM of ROCK inhibitor Y-27632 have been added at the concentrations shown in Table 2 below. After 3 days of culture, the adult stem cells derived from the cultured amniotic epithelial cells were washed with HBSS buffer, and then incubated with Tryple-express (Gibco) or 0.25% trypsin-EDTA at 37° C. for 10 minutes. An FBS-containing medium was added thereto to inactivate trypsin, and then 5×10^6 stem cells derived from the amniotic epithelial cells were obtained and seeded into a fresh medium and subcultured. For each reseeding for subcultures, 10 μM of ROCK inhibitor was added to each fresh medium.

[5] = system: amniotic epithelial cell-derived adult stem cells; experiment: Proliferation of stem cells according to ROCK inhibitor treatment period
Procedure: In order to further improve the proliferation ability of the amniotic epithelial cells obtained in Example 1, the method used in the embryonic stem cell study (Watanabe et al., Nature Biotechnology, 25:681, 2007) and the method of adding ROCK inhibitor during the culture were compared. In other words, the culture in which 10 μM of ROCK inhibitor was added only before reseeding was compared with the culture in which the ROCK inhibitor was added even after reseeding.

In the case of O[C@H](CS)[C@H](O)CS (racemic) [DTT, dithiothreitol], the “number of cells counted immediately after isolation” value ([1]; 5 g amniotic tissue, 10 mM DTT 30 minutes, then 0.05% trypsin-EDTA 37° C. 42 minutes) is reported as 3.72×10^7 cells and the “number of isolated amniotic epithelial cells and number of cells after culture, versus trypsin alone” value ([1]; DTT and trypsin (FIG. 1 A, C) versus trypsin alone (B, D)) is reported as “significantly larger”.

With CC(N)C1CCC(C(=O)Nc2ccncc2)CC1 (stereo not drawn) [ROCK inhibitor, Y-27632] the degree of proliferation ([2]; 10 nM, after 1 day and 4 days of subculture, versus untreated control) was “did not greatly differ from that in the control”, the “cell morphology / differentiation” value ([2]; 100 μM, after 1 day and 4 days of subculture) was “a cell morphology change or cell differentiation appeared” and the “proliferation of the cells” value ([2]; after 1 day and 4 days of subculture) was “significantly increased”. For the same molecule, the “most preferred concentration for the culture of the adult stem cells” value ([2]; tested at 100 μM, 1 μM, 100 nM and 10 nM) was “about 10 μM”, the “apoptosis of the amniotic epithelial cells” value [3] was “inhibited” and the “proliferation of adult stem cells” value [3] was “significantly increased”. The “number of the adult stem cells” value [4] was “rapidly increased”, the “proliferation ability of the adult stem cells” value ([5]; case (A): 10 μM ROCK inhibitor only before reseeding, cultured 1 day) was “clearly increased compared to the control” and the “proliferation ability of adult stem cells” value ([5]; case (B): ROCK inhibitor continuously added during reseeding and culture, 1 day) was “superior compared to the case (A)”.

B1: trypsin: 0.05% trypsin-EDTA (Gibco) used to isolate single cells from amniotic tissue (protein, UniProt P00761 9-231, looked up)
Trypsin: IVGGYTCAANSIPYQVSLNSGSHFCGGSLINSQWVVSAAHCYKSRIQVRLGEHNIDVLEGNEQFINAAKIITHPNFNGNTLDNDIMLIKLSSPATLNSRVATVSLPRSCAAAGTECLISGWGNTKSSGSSYPSLLQCLKAPVLSDSSCKSSYPGQITGNMICVGFLEGGKDSCQGDSGGPVVCNGQLQGIVSWGYGCAQKNKPGVYTKVCNYVNWIQQTIAAN
modifications: with EDTA
notes: 0.05% trypsin-EDTA (Gibco) used to isolate single cells from amniotic tissue
For B1, the “number of cells counted immediately after isolation” value ([1]; treatment with trypsin alone without the addition of DTT) was 9.25×10^5 cells.
